Assay results from patent publication US20160082133A1, “CHEMICAL EXCHANGE SATURATION TRANSFER (CEST) BASED MRI USING REPORTER GENES AND SUBSTRATES AND METHODS THEREOF” (The Johns Hopkins University, priority 2013, published 2016).

How the values were obtained:
Dm-dNK = target: T1, Dm-dNK (Drosophila melanogaster, UniProt Q9XZT6); assay: Fluorescence of cell lysates after incubation with pyrrolo-dC; type: cell-based, rat; conditions: 2 mM, 4 hours
T1 construct: expressed in transfected cells; host or cells: 9L rat glioma cells transfected with a pcDNA vector
T1 sequence (Q9XZT6 whole entry): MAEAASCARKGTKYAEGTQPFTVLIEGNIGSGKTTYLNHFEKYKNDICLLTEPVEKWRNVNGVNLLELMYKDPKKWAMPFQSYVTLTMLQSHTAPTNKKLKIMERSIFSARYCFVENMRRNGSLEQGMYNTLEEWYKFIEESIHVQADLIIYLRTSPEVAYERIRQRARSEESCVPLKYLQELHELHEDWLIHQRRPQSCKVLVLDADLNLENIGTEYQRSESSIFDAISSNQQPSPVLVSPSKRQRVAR
Method: (§1) Pyrrolo-dC was dissolved in 10 mM PBS at 20 mM concentration. CEST MRI experiments were performed on an 11.7T Bruker Avance system as previously described (G. Liu et al., Contrast Media Mol Imaging 5, 162 (2010)). A modified RARE (TR/TE=6000/9.4 ms) including a magnetization transfer module (B1=4.7 μT/4000 ms) was used to acquire CEST weighted images. The absolute water resonant frequency shift was measured using a modified WASSR method, with the same parameters as in CEST imaging except TR=1.5 sec and saturation pulse of B1=0.5 μT/250 ms. Mean CEST-spectra were derived from a ROI for each sample, after B0 correction for each voxel using MatLab. MTR asymmetry (MTRasym)=100×(S^−Δω−S^+Δω/S0 was computed at different offsets Δω. 9L rat glioma, engineered to express Drosophila melanogaster 2′-deoxynucleoside kinase (Dm-dNK; 9L^Dm-dNK) and control, non-expressing cells (9L^wt), 5×10^6 cells per group, were incubated for 4 hours at cell-culture medium containing 2 mM pyrrolo-dC. Then, the cells were washed with PBS, lysed and fluorescence was measured in triplicates using a plate reader (lex355 nm/lem460 nm).

[1] = CEST MRI of pyrrolo-dC in PBS; type: physicochemical; conditions: 20 mM in PBS, 5.8 ppm, 11.7T
Method: as §1

9L^HSV1-tk cells = assay: In vitro uptake assay; type: cell-based, rat; conditions: 1 and 3 h of incubation, 1 μCi
Method: One million cells (9L^wt and 9L^HSV1-tk in triplicates) were incubated in […] medium containing 1 μCi [^125I]FIAU at 37° C. for 1 and 3 h. Cells were pelleted by centrifugation and washed 3 times with cold PBS. Gamma counter was used to monitor the radioactivity of the incubating medium and the incubated cells. [^125I]FIAU uptake was determined as the relative radioactivity (in percentage) of the cells to that of the incubating [^125I]FIAU medium (without cells).

HSV1-TK = target: T2, HSV1-TK (Human herpesvirus 1, UniProt P0DTH5); assay: SPECT/CT imaging of HSV1-TK expression; type: in vivo, mice; conditions: 3 h after iv injection
T2 construct: V5; expressed in transfected cells; host or cells: 9L rat glioma cells transfected with pcDNA3.1-HSV1-tk, single G418-selected clone, implanted in NOD-SCID mouse brain
T2 sequence (P0DTH5 whole entry): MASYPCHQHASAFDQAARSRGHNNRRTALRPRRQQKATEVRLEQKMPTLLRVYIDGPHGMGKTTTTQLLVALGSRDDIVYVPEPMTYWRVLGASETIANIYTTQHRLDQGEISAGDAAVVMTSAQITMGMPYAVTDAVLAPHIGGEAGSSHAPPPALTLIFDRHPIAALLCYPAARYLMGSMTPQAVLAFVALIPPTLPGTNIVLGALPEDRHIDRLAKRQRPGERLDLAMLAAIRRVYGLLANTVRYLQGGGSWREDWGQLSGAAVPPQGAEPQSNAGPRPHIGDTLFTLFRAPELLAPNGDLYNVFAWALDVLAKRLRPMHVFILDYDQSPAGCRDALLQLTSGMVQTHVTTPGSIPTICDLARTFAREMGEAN
Method: An X-SPECT small-animal SPECT/CT system (Gamma Medica-Ideas) was used for image acquisition as previously described (Nimmagadda et al., J. Nucl. Med. 2009, 50, 1124). Briefly, seven days after cell implantation, the mice were injected iv with 50.3 MBq (1.36 mCi) of ^[125I]FIAU. SPECT data were acquired 3 h after radiotracer injection, and the obtained images were coregistered with the corresponding 512 slice CT images. Fused SPECT/CT transaxial sections of 1 mm thickness were generated using Amira 5.2.0 software (Visage Imaging Inc.) showing the SPECT signal obtained from the brain.

[2] = Quantification of exchange rates (QUESP, Bloch equation fitting); type: physicochemical; conditions: 11.7 T, pH 7.4, 37° C.
Method: Exchange rates were quantified with the saturation power dependent CEST approach (QUESP) and Bloch equation fitting (McMahon et al., Magn. Res. Med. 2006, 55, 836). For each sample, the MTRasym was measured at the imino resonance frequency for CEST saturation fields of 43, 85, 128, 170, 213, 255, 340, and 426 Hz while the saturation pulse duration was kept constant at 4000 ms. The Bloch equations were then fit numerically to these MTRasym values using MATLAB (Mathworks), and the exchange rates (kex, s^−1) were determined from the fits. Errors (95% confidence limits) were estimated using the F statistic.

[3] = In vitro CEST-MRI of thymidine analogues at 11.7 T; type: physicochemical; conditions: pH 7.4, 37° C.
Method: All compounds were dissolved at a concentration of 20 mM in phosphate-buffered saline (PBS) (pH=7.4) and placed in microcapillaries, as described previously.^17 CESTMRI experiments were performed on a vertical 11.7 T scanner (Bruker Avance system) at 37° C. A modified RARE sequence (TR/TE=10 000/9.4 ms; RARE factor=16; 1 mm slice thickness; FOV=11×11 mm^2; matrix size=64×32; resolution=0.17×0.34 mm^2; and NA=2) including a magnetization transfer (MT) module ([…]) was used to acquire CEST-weighted images from −8 to +8 ppm with increments of 0.2 ppm around the water resonance, which was assigned to be at 0 ppm. Pixel-based B0 correction was used as described before using the same parameters as above except for TR=1500 ms and B1/tsat=21 Hz/500 ms, with a sweep range from −2 to +2 ppm (0.1 ppm steps). Data processing was performed using custom-written scripts in MATLAB (Mathworks). Mean CEST spectra were plotted from an ROI for each sample, after B0 correction. MTRasym=100×(S^−Aω−S^AωA/^‘−’0)/3 was computed at different offsets Aω.

[4] = In vitro CEST imaging on a clinical 3 Tesla MRI scanner; type: physicochemical; conditions: 3.0 T, 20 mM, pH 7.4, room temperature
Method: Experiments were performed on a 3.0 Tesla Philips Achieva system (Philips Healthcare, Best, The Netherlands) using a body coil for transmit and a small animal solenoid coil for reception. CEST data were collected using a pulsed acquisition scheme (Jones, C. K. et al. Magn Reson Med 2011) with a 25 ms, 164 Hz frequency selective saturation pulse followed by a partial EPI readout (EPI factor 3). This TR interval was repeated until a 3D volume was acquired with 5 slices (slice thickness of 10 mm) across a field of view of 48×45 mm^2 (in plane resolution of 0.75 mm×0.9 mm) The acquisition per irradiation frequency consisted of TR/TE=65/5.5 ms and 4 averages. A total of 64 images were acquired which included an unsaturated volume and 63 saturated volumes with equally spaced frequency offsets between ±10 ppm (relative to the water frequency). The total acquisition time was 26 min 38 s. The experiments for B0 correction (Kim, M. et al. Magn Reson Med 2009, 61, 1441) were run the same except that 40 Hz frequency selective saturation pulse was used. Data processing was performed as described herein.

[5] = cited from earlier work
[6] = at 5 ppm for 20 nM agent (so in the source)

SMILES: Cc1cc2cn([C@H]3C[C@H](O)[C@@H](CO)O3)c(=O)nc2[nH]1 [pyrrolo-dC, Pyrrolo-2′-deoxycytidine]
- fluorescence of lysate of incubated 9L^Dm-dNK cells (Dm-dNK): high fluorescence level
- fluorescence of lysate of incubated 9L^wt cells (Dm-dNK): no fluorescence was detected
- CEST contrast (MTRasym maps) [1]: high CEST contrast

SMILES: O=c1[nH]c(=O)n([C@@H]2O[C@H](CO)[C@@H](O)[C@@H]2F)cc1[125I] [[^125I]FIAU]
- uptake in 9L^HSV1-tk cells compared to 9L^wt cells (9L^HSV1-tk cells): significant accumulation
- accumulation in tumors by SPECT/CT (HSV1-TK): only at the ^9LHSV1-tk tumor

SMILES: C[C@H]1CN([C@H]2C[C@H](O)[C@@H](CO)O2)C(=O)NC1=O [Compound 1, (5S)-5,6-dihydrothymidine]
- kex of the imino proton [2]: 0.8±0.2×10^3 s^−1
- kex, quantified exchange rates of imino and water protons ([2]; 5 ppm for 1-3, 6 ppm for dT): 0.8 ± 0.2 ×10^3 s^−1
- MTRasym (8.5 Hz) [3, 6]: 6%
- MTRasym (170 Hz) [3, 6]: 18%
- MTRasym (213 Hz) [3, 6]: 19%
- MTRasym (128 Hz) ([3]; at 5 ppm for 20 mM agent): 14%
- MTRasym value at 5 ppm, higher compared to dT [4]: 40%
- pKa values of the imino proton obtained from the literature [5]: 11.6^43
